For assay [1], the target named is T1, Cysteinyl leukotriene receptor 1 (Cavia porcellus, UniProt Q2NNR5).
T1 sequence (Q2NNR5 whole entry): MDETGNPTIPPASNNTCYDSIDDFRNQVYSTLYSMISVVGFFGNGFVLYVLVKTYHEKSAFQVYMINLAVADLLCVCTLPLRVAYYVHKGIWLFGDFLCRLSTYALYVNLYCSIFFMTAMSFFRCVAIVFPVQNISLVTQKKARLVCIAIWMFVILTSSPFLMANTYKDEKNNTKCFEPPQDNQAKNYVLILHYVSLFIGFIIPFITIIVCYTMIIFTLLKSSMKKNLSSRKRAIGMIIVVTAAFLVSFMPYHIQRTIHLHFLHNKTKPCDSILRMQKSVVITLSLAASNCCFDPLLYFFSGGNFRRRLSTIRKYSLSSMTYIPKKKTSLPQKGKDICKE
Briefly: In vitro binding affinity towards Cysteinyl leukotriene D4 receptor by using [3H]LTD4 binding assay in guinea pig lung membranes. It is filed as cell membranes, Membrane.

The target in assay [2] is T1, Cysteinyl leukotriene receptor 1. Briefly: In vitro binding affinity towards Cysteinyl leukotriene D4 receptor by using [3H]LTD4 binding assay in guinea pig lung membranes; IA means inactive. The class given is cell membranes.

In assay [1], `O=C(Cc1ccc(OCCCCc2ccccc2)cc1)Nc1ccc(CCCc2nnn[nH]2)cc1` showed a Ki of 2590 nM. This lies in the single-digit micromolar range. In assay [1], `O=C(O)c1ccc(CCNC(=O)c2ccc3ccc(OCc4ccc(-c5ccccc5)cn4)cc3c2)cc1` gave a Ki of 79 nM. Against the preceding molecule, the Ki is about 33-fold lower. `O=C(O)c1ccc(CCNC(=O)c2cc(=O)c3ccc(OCc4ccc5ccccc5n4)cc3o2)cc1`: in assay [2], the Ki entry was “Not Active”. The molecule `CC(C(=O)Nc1ccc(C(=O)O)cc1)c1ccc2cc(OCc3ccc4ccccc4n3)ccc2c1` (stereo not given) showed a Ki in assay [1] of 118 nM. Same read-out and setting: then `O=C(O)c1ccc(OCC(O)COc2ccc3ccc(OCc4ccc5ccccc5n4)cc3c2)cc1` (stereo not given), with 4 nM. The same measure, in the same setting: then `CC(C(=O)Nc1ccc(CCCC(=O)O)cc1)c1ccc2cc(OCc3ccc4ccccc4n3)ccc2c1` (stereo not given), with 38 nM; and `O=C(O)c1ccc(CCNS(=O)(=O)c2ccc3ccc(OCc4ccc5ccccc5n4)cc3c2)cc1`, with 2.6 nM.

Regarding `O=C(O)c1ccc(CCNC(=O)c2ccc3ccc(OCc4ccc5ccccc5n4)cc3c2)cc1`, in assay [1], the inhibition constant (Ki) stood at 1.05 nM. Compared with the last molecule, the Ki is about 2.5-fold lower. On the same count and under the same terms, as for `O=C(Nc1cccc2c(=O)cc(C(=O)O)oc12)c1ccc(OCc2ccc3ccccc3n2)cc1`, the figure is 168 nM; as for `CC(C(=O)NCc1ccc(CC(=O)O)cc1)c1ccc2cc(OCc3ccc4ccccc4n3)ccc2c1` (stereo not given), 134 nM; as for `O=C(O)c1ccc(CCCOc2ccc3ccc(OCc4ccc5ccccc5n4)cc3c2)cc1`, 5.6 nM. Still for that read-out and setting: as for `O=C(O)CCCc1ccc(NC(=O)Cc2cccc(OCc3ccc4ccccc4n3)c2)cc1`, the figure is 40 nM; as for `O=C(Cc1ccc(OCc2ccc3ccccc3n2)cc1)Nc1ccc(Cc2nnn[nH]2)cc1`, 108 nM. `O=C(O)Cc1ccc(CCNS(=O)(=O)c2ccc3ccc(OCc4ccc5ccccc5n4)cc3c2)cc1` had a Ki in assay [1] of 2.4 nM. This Ki is about 45-fold lower than that of the molecule before. Turning to `Cc1cn(Cc2ccc3ccccc3n2)c2cc(C(=O)NCCc3ccc(C(=O)O)cc3)ccc12`, the Ki entry in assay [2] is given as “Not Active”. `O=C(O)CCCc1ccc(NC(=O)Cc2ccc(OCc3ccc4ccc(Cl)cc4n3)cc2)cc1`: the affinity in assay [1] corresponds to a Ki of 4.8 nM. The same measure, in the same setting: as for `O=C(Cc1ccc(OCc2ccc3ccccc3n2)cc1)Nc1ccc(CCCc2nnn[nH]2)cc1`, the figure is 88 nM; as for `CC(C(=O)NCc1ccc(C(=O)O)cc1)c1ccc2cc(OCc3ccc4ccccc4n3)ccc2c1` (stereo not given), 70 nM. In turn, `O=C(O)c1ccc(Cc2noc(-c3ccc4ccc(OCc5ccc6ccccc6n5)cc4c3)n2)cc1` showed a Ki in assay [1] of 15 nM.

Regarding `Cc1ccccc1S(=O)(=O)NC(=O)c1ccc(CCNC(=O)c2ccc3ccc(OCc4ccc5ccccc5n4)cc3c2)cc1`, the Ki in assay [1] stood at 15 nM.

In the case of `CC(C(=O)NCc1cccc(-c2nnn[nH]2)c1)c1ccc2cc(OCc3ccc4ccccc4n3)ccc2c1` (stereo not given), in assay [1], the Ki was 29 nM. The same measure, in the same setting: then `O=C(O)c1ccc(CCNC(=O)C2CCc3ccc(OCc4ccc5ccccc5n4)cc3O2)cc1` (stereo not given), with 237 nM. Same read-out and setting: as for `O=C(O)CCCc1ccc(NC(=O)Cc2ccc(OCc3ccc4ccccc4n3)cc2)cc1`, the figure is 7.3 nM. Same read-out and setting: then `Cn1cc(CC(=O)NCc2ccc(-c3nn[nH]n3)cc2)c2cc(OCc3ccc4ccccc4n3)ccc21`, with 1050 nM. As for `O=C(Nc1cccc2c(=O)cc(C(=O)O)oc12)c1ccc2ccc(OCc3ccc4ccccc4n3)cc2c1`, the Ki in assay [1] stood at 30 nM. The same measure, in the same setting: as for `O=C(O)c1ccc2c(ccn2Cc2ccc3ccc(OCc4ccc5ccccc5n4)cc3c2)c1`, the figure is 30 nM; as for `CC(C(=O)NCCCCC(=O)O)c1ccc2cc(OCc3ccc4ccccc4n3)ccc2c1` (stereo not given), 360 nM.

In turn, `CN(C(=O)Cc1ccc(OCc2ccc3ccccc3n2)cc1)c1ccc(CCCC(=O)O)cc1` came in with a Ki in assay [1] of 297 nM. For the molecule `O=C(O)c1ccc(CCNC(=O)c2ccc3ccc(OCc4ccc5ccccc5c4)cc3c2)cc1`, the Ki entry in assay [2] is “Not Active”. Molecule `O=C(Nc1ccc(CCCc2nnn[nH]2)cc1)c1ccc(OCc2ccc3ccccc3n2)cc1` gave an inhibition constant Ki in assay [1] of 595 nM.

(Values after ChEMBL document CHEMBL1133579, “Derivation of pharmacophore and CoMFA models for leukotriene D(4) receptor antagonists of the quinolinyl(bridged)aryl series” (J Med Chem, 2000).)
